Results: US10792289B2 (Horizon Orphan LLC, priority 2009, dated 2020)

Tested on: stable CF patients
Assay: Phase 2 study: pulmonary function (FEV1, FVC, FEF 25-75)
Assay type: in vivo, human
Design: FEF 25-75, Median / FEV1, Day 14, Mean / FEF 25-75, Mean: unit not given here; FEV1, Day 1, Mean / FEV1, Day 1, Median / FEV1, Day 14, Median / FEV1, Day 28, Mean / FEV1, Day 28, Median: unit: L
Settings: for Increase in FEF 25-75 / Increase in FEV1: median Day 1 to Day 28; for FEV1, Day 1, Mean / FEV1, Day 1, Median / FEV1, Day 14, Mean / FEV1, Day 14, Median / FEV1, Day 28, Mean / FEV1, Day 28, Median / FEV1, Percent Change from Baseline to Day 14, Mean / FEV1, Percent Change from Baseline to Day 14, Median / FEV1, Percent Change from Baseline to Day 28, Mean / FEV1, Percent Change from Baseline to Day 28, Median / % predicted FEV1, Mean / % predicted FEV1, Median: MITT population
Experimental: The following dosage regimens (as nebulizer loaded doses) were evaluated: 120 mg QD (daily); 240 mg QD (daily); and 240 mg BID (twice daily).
Efficacy endpoints including clinical endpoints, pulmonary function tests, and additional microbiological parameters were assessed as change from Day 1 to subsequent visits where the endpoint data was collected. Time to need for intravenous/oral/inhaled anti-pseudomonal antimicrobials were assessed from Day 1 until final visit using survival analysis. The primary population for efficacy analysis was the EE population, but efficacy endpoints were also analyzed using the MITT population.
Changes in FEV1 (forced expiratory volume in 1 second), FVC (forced vital capacity) and FEF 25-75 (forced expiratory flow 25-75%) from Day 1 to all subsequent visits were determined for patients. Tables 26 and 27 summarize the results for FEV1 measurements in EE and MITT populations, respectively. FIGS. 7 and 8 show graphs of percent change in FEV1 (L) and percent change in FEV1(L) vs. placebo, respectively, at Day 28 for the EET population treated with placebo, 120 mg QD, 240 mg QD, or 240 mg BID. […] Tables 28 and 29 summarize the results for predicted FEVI measurements in EE and MITT populations, respectively. Tables 30 and 31 summarize results for FEF 25-75 measurements in EE and MITT populations, respectively.

[1] = EE, 240 mg BID, Day 1 (baseline)
[2] = Day 1 (baseline), combined 240 mg QD and BID
[3] = Day 14, combined 240 mg QD and BID
[4] = Day 28, combined 240 mg QD and BID
[5] = MITT, 240 mg BID, Day 1 (baseline)

C[C@H]1COc2c(N3CCN(C)CC3)c(F)cc3c(=O)c(C(=O)O)cn1c23 [Levofloxacin, levofloxacin]
FEF 25-75, Median (EE population, Day 28, combined 240 mg QD and BID): 0.97
FEF 25-75, Median (EE, 120 mg QD, Day 1): 0.98
FEV1, median (EE, 120 mg QD, Day 1): 1.87 L
FEF 25-75, Median (EE, 120 mg QD, Day 28): 1.03
FEV1, median (EE, 120 mg QD, Day 28): 1.91 L
Increase in FEF 25-75 (EE, 120 mg QD): approximately 5%
Increase in FEV1 (EE, 120 mg QD): approximately 2%
FEF 25-75, Median [1]: 0.68
FEV1, median [1]: 1.70 L
FEF 25-75, Median (EE, 240 mg BID, Day 28): 0.78
FEV1, median (EE, 240 mg BID, Day 28): 1.79 L
Increase in FEF 25-75 (EE, 240 mg BID): approximately 15%
Increase in FEV1 (EE, 240 mg BID): approximately 5%
FEF 25-75, Median (EE, 240 mg QD, Day 1): 1.10
FEV1, median (EE, 240 mg QD, Day 1): 2.02 L
FEF 25-75, Median (EE, 240 mg QD, Day 28): 1.15
FEV1, median (EE, 240 mg QD, Day 28): 2.15 L
Increase in FEF 25-75 (EE, 240 mg QD): approximately 4%
Increase in FEV1 (EE, 240 mg QD): approximately 6%
Largest difference for FEF 25-75, placebo vs levofloxacin (EE, Day 14): 0.25 L
Largest difference for FEV1, placebo vs levofloxacin (EE, Day 14): 0.16 L
Largest difference for FEF 25-75, placebo vs levofloxacin (EE, Day 28): 0.21 L
Largest difference for FEV1, placebo vs levofloxacin (EE, Day 28): 0.24 L
FEV1, Day 1, Mean (120 mg QD): 1.95
FEV1, Day 1, Median (120 mg QD): 1.83
FEV1, Day 14, Mean (120 mg QD): 1.97
FEV1, Day 14, Median (120 mg QD): 1.79
FEV1, Day 28, Mean (120 mg QD): 1.99
FEV1, Day 28, Median (120 mg QD): 1.83
FEV1, Percent Change from Baseline to Day 14, Mean (120 mg QD): 1.87%
FEV1, Percent Change from Baseline to Day 14, Median (120 mg QD): 0.56%
FEV1, Percent Change from Baseline to Day 28, Mean (120 mg QD): 1.92%
FEV1, Percent Change from Baseline to Day 28, Median (120 mg QD): 1.60%
FEV1, Day 1, Mean (240 mg BID): 1.88
FEV1, Day 1, Median (240 mg BID): 1.70
FEV1, Day 14, Mean (240 mg BID): 2.04
FEV1, Day 14, Median (240 mg BID): 1.90
FEV1, Day 28, Mean (240 mg BID): 1.93
FEV1, Day 28, Median (240 mg BID): 1.82
FEV1, Percent Change from Baseline to Day 14, Mean (240 mg BID): 9.34%
FEV1, Percent Change from Baseline to Day 14, Median (240 mg BID): 7.51%
FEV1, Percent Change from Baseline to Day 28, Mean (240 mg BID): 5.93%
FEV1, Percent Change from Baseline to Day 28, Median (240 mg BID): 3.55%
FEV1, Day 1, Mean (240 mg QD): 2.05
FEV1, Day 1, Median (240 mg QD): 1.90
FEV1, Day 14, Mean (240 mg QD): 2.12
FEV1, Day 14, Median (240 mg QD): 2.04
FEV1, Day 28, Mean (240 mg QD): 2.09
FEV1, Day 28, Median (240 mg QD): 2.10
FEV1, Percent Change from Baseline to Day 14, Mean (240 mg QD): 3.81%
FEV1, Percent Change from Baseline to Day 14, Median (240 mg QD): 1.92%
FEV1, Percent Change from Baseline to Day 28, Mean (240 mg QD): 2.35%
FEV1, Percent Change from Baseline to Day 28, Median (240 mg QD): 1.28%
FEV1, Day 1, Mean (Combined 240 mg QD and BID): 1.96
FEV1, Day 1, Median (Combined 240 mg QD and BID): 1.80
FEV1, Day 14, Mean (Combined 240 mg QD and BID): 2.08
FEV1, Day 14, Median (Combined 240 mg QD and BID): 1.97
FEV1, Day 28, Mean (Combined 240 mg QD and BID): 2.01
FEV1, Day 28, Median (Combined 240 mg QD and BID): 1.95
FEV1, Percent Change from Baseline to Day 14, Mean (Combined 240 mg QD and BID): 6.61%
FEV1, Percent Change from Baseline to Day 14, Median (Combined 240 mg QD and BID): 3.94%
FEV1, Percent Change from Baseline to Day 28, Mean (Combined 240 mg QD and BID): 4.14%
FEV1, Percent Change from Baseline to Day 28, Median (Combined 240 mg QD and BID): 2.50%
% predicted FEV1, Mean (Day 1 (baseline), 120 mg QD): 52.9%
% predicted FEV1, Median (Day 1 (baseline), 120 mg QD): 53.0%
% predicted FEV1, Mean (Day 1 (baseline), 240 mg BID): 48.8%
% predicted FEV1, Median (Day 1 (baseline), 240 mg BID): 46.0%
% predicted FEV1, Mean (Day 1 (baseline), 240 mg QD): 55.4%
% predicted FEV1, Median (Day 1 (baseline), 240 mg QD): 56.0%
% predicted FEV1, Mean [2]: 52.0%
% predicted FEV1, Median [2]: 51.0%
% predicted FEV1, Mean (Day 14, 120 mg QD): 53.9%
% predicted FEV1, Median (Day 14, 120 mg QD): 53.0%
% predicted FEV1, Mean (Day 14, 240 mg BID): 52.1%
% predicted FEV1, Median (Day 14, 240 mg BID): 49.56%
% predicted FEV1, Mean (Day 14, 240 mg QD): 57.1%
% predicted FEV1, Median (Day 14, 240 mg QD): 61.0%
% predicted FEV1, Mean [3]: 54.6%
% predicted FEV1, Median [3]: 52.0%
% predicted FEV1, Mean (Day 28, 120 mg QD): 54.1%
% predicted FEV1, Median (Day 28, 120 mg QD): 50.0%
% predicted FEV1, Mean (Day 28, 240 mg BID): 50.8%
% predicted FEV1, Median (Day 28, 240 mg BID): 49.0%
% predicted FEV1, Mean (Day 28, 240 mg QD): 56.7%
% predicted FEV1, Median (Day 28, 240 mg QD): 54.0%
% predicted FEV1, Mean [4]: 53.8%
% predicted FEV1, Median [4]: 53.5%
FEF 25-75, Median [5]: 0.68
FEV1, median [5]: 1.70 L
FEF 25-75, Median (MITT, 240 mg BID, Day 28): 0.82
FEV1, median (MITT, 240 mg BID, Day 28): 1.82 L
Increase in FEF 25-75 (MITT, 240 mg BID): approximately 20%
Increase in FEV1 (MITT, 240 mg BID): approximately 7%
FEF 25-75, Median (MITT, 240 mg QD, Day 1): 1.09
FEV1, median (MITT, 240 mg QD, Day 1): 1.90 L
FEF 25-75, Median (MITT, 240 mg QD, Day 28): 1.12
FEV1, median (MITT, 240 mg QD, Day 28): 2.10 L
Increase in FEF 25-75 (MITT, 240 mg QD): approximately 3%
Increase in FEV1 (MITT, 240 mg QD): approximately 10%
Largest difference for FEF 25-75, placebo vs levofloxacin (MITT, Day 14): 0.27 L
Largest difference for FEV1, placebo vs levofloxacin (MITT, Day 14): 0.12 L
Largest difference for FEF 25-75, placebo vs levofloxacin (MITT, Day 28): 0.21 L
Largest difference for FEV1, placebo vs levofloxacin (MITT, Day 28): 0.25 L
